Reference: patent US9630977B2, “Cephalosporin derivatives and pharmaceutical compositions thereof” (Legochem Biosciences, Inc., priority 2011, dated 2017)
In brackets after ≈: the same amount, converted by molar mass.

Tested on: A. baumannii 49
Test: In vitro antibacterial activity test (broth microdilution)
Format: cell-based
Settings: Acinetobacter baumannii; A. baumannii 49; read-out: MIC90
Procedure, shortened: (§1)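 Stocks at 10,240 ug/mL in DMSO, serially diluted in DMSO then water to final 0.0626–128 ug/mL (2.5% V/V DMSO). CLSI broth microdilution; MIC90, ug/mL.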

**Q.** With `C[C@H](O/N=C(\C(=O)N[C@@H]1C(=O)N2C(C(=O)[O-])=C(C[n+]3cnc(N)c(NC(=O)CCNC(=O)c4cc(=O)c(O)cn4O)c3)CSC12)c1nc(N)sc1Cl)C(=O)O` (stereo partly shown) [Compound 20] as the compound, how does the MIC90 read?
**A.** 32 µg/mL (≈ 38.9 µM)

Tested on: P. aeruginosa 6065Y
Test: as above
Format: cell-based
Settings: Pseudomonas aeruginosa, read-out: MIC90
Procedure, shortened: as §1

**Q.** For `C[C@H](O/N=C(\C(=O)N[C@@H]1C(=O)N2C(C(=O)[O-])=C(C[n+]3cnc(N)c(NC(=O)CCNC(=O)c4cc(=O)c(O)cn4O)c3)CSC12)c1nc(N)sc1Cl)C(=O)O` (stereo partly shown) [Compound 20], which MIC90 is on record?
**A.** 1 µg/mL (≈ 1.22 µM)

Tested on: E. cloacae β19
Test: as above
Format: cell-based
Settings: Enterobacter cloacae, read-out: MIC90
Procedure, shortened: as §1

**Q.** `C[C@H](O/N=C(\C(=O)N[C@@H]1C(=O)N2C(C(=O)[O-])=C(C[n+]3cnc(N)c(NC(=O)CCNC(=O)c4cc(=O)c(O)cn4O)c3)CSC12)c1nc(N)sc1Cl)C(=O)O` (stereo partly shown) [Compound 20] was tested. Which MIC90 did it give?
**A.** 8 µg/mL (≈ 9.73 µM)

Tested on: M. catarrhalis 2524
Test: as above
Format: cell-based
Settings: Moraxella catarrhalis; M. catarrhalis 2524; read-out: MIC90
Procedure, shortened: as §1

**Q.** For `C[C@H](O/N=C(\C(=O)N[C@@H]1C(=O)N2C(C(=O)[O-])=C(C[n+]3cnc(N)c(NC(=O)CCNC(=O)c4cc(=O)c(O)cn4O)c3)CSC12)c1nc(N)sc1Cl)C(=O)O` (stereo partly shown) [Compound 20], which MIC90 is on record?
**A.** 0.5 µg/mL (≈ 0.608 µM)

Tested on: K. pneumoniae β9
Test: as above
Format: cell-based
Settings: Klebsiella pneumoniae, K. pneumoniae β9; read-out: MIC90
Procedure, shortened: as §1

**Q.** For `C[C@H](O/N=C(\C(=O)N[C@@H]1C(=O)N2C(C(=O)[O-])=C(C[n+]3cnc(N)c(NC(=O)CCNC(=O)c4cc(=O)c(O)cn4O)c3)CSC12)c1nc(N)sc1Cl)C(=O)O` (stereo partly shown) [Compound 20], which MIC90 is on record?
**A.** 2 µg/mL (≈ 2.43 µM)

Tested on: P. aeruginosa 40
Test: as above
Format: cell-based
Settings: Pseudomonas aeruginosa, 40, P. aeruginosa 40; read-out: MIC90
Procedure, shortened: as §1

**Q.** For `C[C@H](O/N=C(\C(=O)N[C@@H]1C(=O)N2C(C(=O)[O-])=C(C[n+]3cnc(N)c(NC(=O)CCNC(=O)c4cc(=O)c(O)cn4O)c3)CSC12)c1nc(N)sc1Cl)C(=O)O` (stereo partly shown) [Compound 20], which MIC90 is on record?
**A.** 4 µg/mL (≈ 4.87 µM)

Tested on: E. coli AG100
Test: as above
Format: cell-based
Settings: Escherichia coli, AG100, E. coli AG100; read-out: MIC90
Procedure, shortened: as §1

**Q.** How did the MIC90 turn out when `C[C@H](O/N=C(\C(=O)N[C@@H]1C(=O)N2C(C(=O)[O-])=C(C[n+]3cnc(N)c(NC(=O)CCNC(=O)c4cc(=O)c(O)cn4O)c3)CSC12)c1nc(N)sc1Cl)C(=O)O` (stereo partly shown) [Compound 20] was run?
**A.** 0.25 µg/mL (≈ 0.304 µM)

Tested on: P. aeruginosa 37
Test: as above
Format: cell-based
Settings: Pseudomonas aeruginosa, 37, P. aeruginosa 37; read-out: MIC90
Procedure, shortened: as §1

**Q.** `C[C@H](O/N=C(\C(=O)N[C@@H]1C(=O)N2C(C(=O)[O-])=C(C[n+]3cnc(N)c(NC(=O)CCNC(=O)c4cc(=O)c(O)cn4O)c3)CSC12)c1nc(N)sc1Cl)C(=O)O` (stereo partly shown) [Compound 20] was tested. Which MIC90 did it give?
**A.** 2 µg/mL (≈ 2.43 µM)

Tested on: K. pneumoniae 2011E
Test: as above
Format: cell-based
Settings: Klebsiella pneumoniae, 2011E, K. pneumoniae 2011E; read-out: MIC90
Procedure, shortened: as §1

**Q.** `C[C@H](O/N=C(\C(=O)N[C@@H]1C(=O)N2C(C(=O)[O-])=C(C[n+]3cnc(N)c(NC(=O)CCNC(=O)c4cc(=O)c(O)cn4O)c3)CSC12)c1nc(N)sc1Cl)C(=O)O` (stereo partly shown) [Compound 20] was tested. Which MIC90 did it give?
**A.** 8 µg/mL (≈ 9.73 µM)

Tested on: K. pneumoniae β13
Test: as above
Format: cell-based
Settings: Klebsiella pneumoniae, K. pneumoniae β13; read-out: MIC90
Procedure, shortened: as §1

**Q.** Which MIC90 does the source give for `C[C@H](O/N=C(\C(=O)N[C@@H]1C(=O)N2C(C(=O)[O-])=C(C[n+]3cnc(N)c(NC(=O)CCNC(=O)c4cc(=O)c(O)cn4O)c3)CSC12)c1nc(N)sc1Cl)C(=O)O` (stereo partly shown) [Compound 20] here?
**A.** 1 µg/mL (≈ 1.22 µM)

Tested on: K. pneumoniae β11
Test: as above
Format: cell-based
Settings: Klebsiella pneumoniae; K. pneumoniae β11; read-out: MIC90
Procedure, shortened: as §1

**Q.** With `C[C@H](O/N=C(\C(=O)N[C@@H]1C(=O)N2C(C(=O)[O-])=C(C[n+]3cnc(N)c(NC(=O)CCNC(=O)c4cc(=O)c(O)cn4O)c3)CSC12)c1nc(N)sc1Cl)C(=O)O` (stereo partly shown) [Compound 20] as the compound, how does the MIC90 read?
**A.** 16 µg/mL (≈ 19.5 µM)

Tested on: A. baumannii 52
Test: as above
Format: cell-based
Settings: Acinetobacter baumannii; A. baumannii 52; read-out: MIC90
Procedure, shortened: as §1

**Q.** With `C[C@H](O/N=C(\C(=O)N[C@@H]1C(=O)N2C(C(=O)[O-])=C(C[n+]3cnc(N)c(NC(=O)CCNC(=O)c4cc(=O)c(O)cn4O)c3)CSC12)c1nc(N)sc1Cl)C(=O)O` (stereo partly shown) [Compound 20] as the compound, how does the MIC90 read?
**A.** 2 µg/mL (≈ 2.43 µM)

Tested on: P. aeruginosa 1912E
Test: as above
Format: cell-based
Settings: Pseudomonas aeruginosa, 1912E, read-out: MIC90
Procedure, shortened: as §1

**Q.** For `C[C@H](O/N=C(\C(=O)N[C@@H]1C(=O)N2C(C(=O)[O-])=C(C[n+]3cnc(N)c(NC(=O)CCNC(=O)c4cc(=O)c(O)cn4O)c3)CSC12)c1nc(N)sc1Cl)C(=O)O` (stereo partly shown) [Compound 20], which MIC90 is on record?
**A.** 4 µg/mL (≈ 4.87 µM)

Tested on: P. aeruginosa 43
Test: as above
Format: cell-based
Settings: Pseudomonas aeruginosa; P. aeruginosa 43; read-out: MIC90
Procedure, shortened: as §1

**Q.** How did the MIC90 turn out when `C[C@H](O/N=C(\C(=O)N[C@@H]1C(=O)N2C(C(=O)[O-])=C(C[n+]3cnc(N)c(NC(=O)CCNC(=O)c4cc(=O)c(O)cn4O)c3)CSC12)c1nc(N)sc1Cl)C(=O)O` (stereo partly shown) [Compound 20] was run?
**A.** 1 µg/mL (≈ 1.22 µM)

Tested on: K. pneumoniae β10
Test: as above
Format: cell-based
Settings: Klebsiella pneumoniae; K. pneumoniae β10; read-out: MIC90
Procedure, shortened: as §1

**Q.** How did the MIC90 turn out when `C[C@H](O/N=C(\C(=O)N[C@@H]1C(=O)N2C(C(=O)[O-])=C(C[n+]3cnc(N)c(NC(=O)CCNC(=O)c4cc(=O)c(O)cn4O)c3)CSC12)c1nc(N)sc1Cl)C(=O)O` (stereo partly shown) [Compound 20] was run?
**A.** 0.5 µg/mL (≈ 0.608 µM)

Tested on: K. pneumoniae β14
Test: as above
Format: cell-based
Settings: Klebsiella pneumoniae, read-out: MIC90
Procedure, shortened: as §1

**Q.** Which MIC90 does the source give for `C[C@H](O/N=C(\C(=O)N[C@@H]1C(=O)N2C(C(=O)[O-])=C(C[n+]3cnc(N)c(NC(=O)CCNC(=O)c4cc(=O)c(O)cn4O)c3)CSC12)c1nc(N)sc1Cl)C(=O)O` (stereo partly shown) [Compound 20] here?
**A.** 64 µg/mL (≈ 77.8 µM)

Tested on: E. coli β4
Test: as above
Format: cell-based
Settings: Escherichia coli, read-out: MIC90
Procedure, shortened: as §1

**Q.** How did the MIC90 turn out when `C[C@H](O/N=C(\C(=O)N[C@@H]1C(=O)N2C(C(=O)[O-])=C(C[n+]3cnc(N)c(NC(=O)CCNC(=O)c4cc(=O)c(O)cn4O)c3)CSC12)c1nc(N)sc1Cl)C(=O)O` (stereo partly shown) [Compound 20] was run?
**A.** 8 µg/mL (≈ 9.73 µM)

Tested on: A. calcoaceticus ATCC15473
Test: as above
Format: cell-based
Settings: Acinetobacter calcoaceticus; A. calcoaceticus ATCC15473; read-out: MIC90
Procedure, shortened: as §1

**Q.** `C[C@H](O/N=C(\C(=O)N[C@@H]1C(=O)N2C(C(=O)[O-])=C(C[n+]3cnc(N)c(NC(=O)CCNC(=O)c4cc(=O)c(O)cn4O)c3)CSC12)c1nc(N)sc1Cl)C(=O)O` (stereo partly shown) [Compound 20] was tested. Which MIC90 did it give?
**A.** 1 µg/mL (≈ 1.22 µM)

Tested on: A. baumannii 46
Test: as above
Format: cell-based
Settings: Acinetobacter baumannii; A. baumannii 46; read-out: MIC90
Procedure, shortened: as §1

**Q.** `C[C@H](O/N=C(\C(=O)N[C@@H]1C(=O)N2C(C(=O)[O-])=C(C[n+]3cnc(N)c(NC(=O)CCNC(=O)c4cc(=O)c(O)cn4O)c3)CSC12)c1nc(N)sc1Cl)C(=O)O` (stereo partly shown) [Compound 20] was tested. Which MIC90 did it give?
**A.** 16 µg/mL (≈ 19.5 µM)
